Test results taken from the CheMixHub viscosity set.
Where “and” joins values, the source holds several entries; their conditions need not be identical. Equal values may be shown once.

Assays:
[1] = xn = mol fraction of the nth substance listed

CC(C)[O-].CC(C)[O-].CC(C)[O-].CC(C)[O-].[Ti+4]
101.3 kPa
Settings | viscosity [mPa·s]
293.15 K | 3.144
303.15 K | 1.845
313.15 K | 1.279
323.15 K | 1.003

CC1CCCCC1O (stereo not drawn)
viscosity [mPa·s]
Settings | 293.15 K | 298.15 K | 303.15 K | 308.15 K | 313.15 K
100 kPa | 38.6 | 26.99 | 18.91 | 13.95 | 10.53
101 kPa | 21.7 | – | – | – | –

CCC(C)(O)CC
Settings | viscosity
298.15 K, 101.33 kPa | 3.918 mPa·s and 3.918 mPa·s

CCCC(C)=O
Settings | viscosity
293.15 K, 101 kPa | 0.506 mPa·s
298.15 K, 101 kPa | 0.463 mPa·s and 0.4591 mPa·s and 0.4673 mPa·s
303.15 K, 100 kPa | 0.435 mPa·s
303.15 K, 101 kPa | 0.437 mPa·s and 0.435 mPa·s
303.15 K, 101.32 kPa | 0.466 mPa·s
303.15 K, 101.33 kPa | 0.456 mPa·s
308.15 K, 100 kPa | 0.422 mPa·s
308.15 K, 101 kPa | 0.413 mPa·s and 0.422 mPa·s and 0.4197 mPa·s
313.15 K, 100 kPa | 0.409 mPa·s
313.15 K, 101 kPa | 0.405 mPa·s
318.15 K, 101 kPa | 0.3782 mPa·s
323.15 K, 101 kPa | 0.3584 mPa·s

CCCCCCCC(=O)[O-].CC[NH+](C(C)C)C(C)C
Settings | viscosity [mPa·s]
298.15 K, 101.3 kPa | 13.52

CCCCCCCCCCCCCC[P+](CCCCCC)(CCCCCC)CCCCCC.O=S(=O)([N-]S(=O)(=O)C(F)(F)F)C(F)(F)F
Settings | viscosity [mPa·s]
313.15 K, 101 kPa | 150

CCCC[n+]1ccccc1.N#C[N-]C#N
101 kPa
Settings | viscosity [mPa·s]
293.15 K | 41.05
298.15 K | 33.27
303.15 K | 27.62
308.15 K | 22.9
313.15 K | 19.3
318.15 K | 16.73
323.15 K | 14.44

CCCOC(C)=O
viscosity
Settings | 293.15 K | 298.15 K | 303.15 K | 308.15 K | 313.15 K | 318.15 K
101 kPa | 0.591 mPa·s | 0.56 mPa·s and 0.553 mPa·s and 0.562 mPa·s | 0.525 mPa·s | 0.487 mPa·s and 0.488 mPa·s | 0.462 mPa·s and 0.451 mPa·s | 0.439 mPa·s
101.33 kPa | – | 0.563 mPa·s | 0.524 mPa·s and 0.512 mPa·s | 0.489 mPa·s and 0.483 mPa·s | – | –

CCN(CC)CC
Settings | viscosity
293.15 K, 100 kPa | 0.3608 mPa·s
293.15 K, 101 kPa | 0.369 mPa·s
297.85 K, 101 kPa | 0.352 mPa·s
298 K, 101.33 kPa | 0.35 mPa·s
298.15 K, 100 kPa | 0.353 mPa·s and 0.3534 mPa·s (2×)
298.15 K, 101 kPa | 0.344 mPa·s
302.85 K, 101 kPa | 0.335 mPa·s
303.15 K, 100 kPa | 0.339 mPa·s and 0.3387 mPa·s (2×)
303.15 K, 101 kPa | 0.333 mPa·s
303.15 K, 101.33 kPa | 0.3592 mPa·s and 0.3592 mPa·s
307.85 K, 101 kPa | 0.319 mPa·s
308.15 K, 100 kPa | 0.322 mPa·s and 0.3221 mPa·s (2×)
312.95 K, 101 kPa | 0.304 mPa·s
313.15 K, 101 kPa | 0.302 mPa·s
313.15 K, 101.33 kPa | 0.3249 mPa·s and 0.3249 mPa·s
317.75 K, 101 kPa | 0.291 mPa·s
322.75 K, 101 kPa | 0.278 mPa·s
323.15 K, 101 kPa | 0.275 mPa·s

CCOC(=O)c1ccccc1O
Settings | viscosity [mPa·s]
303.15 K, 101 kPa | 3.117

CC[N+](C)(CC)CCOC.F[B-](F)(F)F
101 kPa
Settings | viscosity [mPa·s]
293.15 K | 228.1
298.15 K | 178.6
303.15 K | 140.4
308.15 K | 111.4
313.15 K | 89.27
318.15 K | 70.53
323.15 K | 57.55

CC[n+]1ccn(C)c1.N#C[N-]C#N
viscosity
Settings | 298.15 K | 303.15 K | 308.15 K | 313.15 K | 318.15 K | 323.15 K
100 kPa | 14.78 mPa·s and 13.09 mPa·s | 12.88 mPa·s and 11.39 mPa·s | 11.3 mPa·s and 10 mPa·s | 9.759 mPa·s and 8.86 mPa·s | 8.929 mPa·s and 7.92 mPa·s | 8.01 mPa·s and 7.13 mPa·s
101 kPa | 14.9 mPa·s and 17.4 mPa·s | – | – | 10.07 mPa·s | – | –

CCn1cc[n+](C)c1.O=C([O-])[C@@H]1CCCN1
101 kPa
Settings | viscosity [mPa·s]
298.15 K | 1195
303.15 K | 771.5

ClC(Cl)(Cl)Cl
Settings | viscosity
293.15 K, 101 kPa | 0.95 mPa·s and 0.9826 mPa·s
298 K, 101 kPa | 0.9128 mPa·s
298 K, 101.3 kPa | 0.892 mPa·s
298 K, 101.33 kPa | 0.899 mPa·s
298.15 K, 100 kPa | 0.9062 mPa·s and 0.897 mPa·s
298.15 K, 101.32 kPa | 0.902 mPa·s and 0.902 mPa·s
298.16 K, 101 kPa | 0.907 mPa·s
301.85 K, 101 kPa | 0.9088 mPa·s
303 K, 101.33 kPa | 0.8371 mPa·s and 0.838 mPa·s
303.15 K, 100 kPa | 0.845 mPa·s and 0.838 mPa·s
303.15 K, 101.3 kPa | 0.8427 mPa·s and 0.8427 mPa·s
303.15 K, 101.33 kPa | 0.845 mPa·s and 0.845 mPa·s and 0.768 mPa·s
308 K, 101 kPa | 0.7888 mPa·s
308.15 K, 100 kPa | 0.7897 mPa·s and 0.784 mPa·s
308.15 K, 101.33 kPa | 0.717 mPa·s
312.15 K, 101 kPa | 0.7815 mPa·s
313 K, 101.33 kPa | 0.7436 mPa·s and 0.735 mPa·s
313.15 K, 100 kPa | 0.7394 mPa·s and 0.734 mPa·s
313.15 K, 101.33 kPa | 0.739 mPa·s and 0.7392 mPa·s
318 K, 101 kPa | 0.6788 mPa·s
318 K, 101.3 kPa | 0.7444 mPa·s and 0.7449 mPa·s
318 K, 101.33 kPa | 0.7449 mPa·s
318.15 K, 100 kPa | 0.689 mPa·s
323 K, 101.33 kPa | 0.6566 mPa·s and 0.653 mPa·s
323.15 K, 101 kPa | 0.712 mPa·s
323.15 K, 101.33 kPa | 0.6543 mPa·s

CCCCCCCCCCCCc1ccccc1S(=O)(=O)[O-].[Na+] + O
viscosity [mPa·s], [1], 101 kPa
Settings | x1 = 5e-06 | x1 = 1e-05 | x1 = 2e-05 | x1 = 2.2e-05 | x1 = 2.7e-05 | x1 = 3.2e-05 | x1 = 3.8e-05 | x1 = 4.3e-05 | x1 = 4.9e-05 | x1 = 5.4e-05
293.15 K | 0.9811 | 0.9821 | 0.9837 | 0.9859 | 0.9881 | 0.9903 | 0.9919 | 0.9944 | 0.9974 | 1.001
298.15 K | 0.8497 | 0.8508 | 0.8522 | 0.8544 | 0.8558 | 0.857 | 0.8582 | 0.86 | 0.8614 | 0.864
303.15 K | 0.7683 | 0.7687 | 0.77 | 0.7718 | 0.7744 | 0.7763 | 0.7812 | 0.7864 | 0.796 | 0.7988
308.15 K | 0.6924 | 0.6932 | 0.6943 | 0.6958 | 0.6979 | 0.7013 | 0.7051 | 0.7074 | 0.7106 | 0.7123
313.15 K | 0.6075 | 0.609 | 0.6102 | 0.6121 | 0.6138 | 0.6167 | 0.6203 | 0.623 | 0.6242 | 0.6262

NCC(=O)N[C@@H](CCC(N)=O)C(=O)O + O
[1], 298.15 K, 101 kPa
Settings | viscosity [mPa·s]
x1 = 0.001798 | 0.937
x1 = 0.002695 | 0.96

NNC(=O)c1ccncc1 + O
viscosity [mPa·s], [1]
Settings | 298.15 K | 303.15 K | 308.15 K | 313.15 K
100 kPa, x1 = 0.00051 | – | – | 0.7216 | –
100 kPa, x1 = 0.000801 | – | 0.8033 | 0.724 | –
100 kPa, x1 = 0.00109 | 0.9009 | 0.8061 | 0.7263 | 0.6588
100 kPa, x1 = 0.00153 | 0.9061 | 0.8104 | 0.7299 | 0.6617
101 kPa, x1 = 0.003 | 0.9182 | – | 0.7383 | –
